Experimental data reported in PubChem BioAssay AID1259408 (Genetic Toxicology Data Bank (GENE-TOX), 2018).
The source made the active and inactive calls. The rule behind the calls is not given here.

System: GENE-TOX genotoxicity assays, various organisms and cells
Assay: GENE-TOX mutagenicity studies
Settings: for call: Assay Type: In vivo carcinogenicity studies
[1] = Species/Cell Type: Nonhuman, Assay Code: CCG+, Evaluation Type: Evaluation A (Pre-1980)
[2] = Species/Cell Type: Salmonella typhimurium (one or more of the five standard strains: TA98, TA100, TA1535, TA1537, and TA1538), Assay Type: Histidine reverse gene mutation, Ames assay, Assay Code: SAL+, Evaluation Type: Evaluation A (Pre-1980)
[3] = Species/Cell Type: Escherichia coli polA (W3119 vs P3478), Assay Type: Rec-assay, DNA effects (bacterial DNA repair), Assay Code: RE1T, Evaluation Type: Evaluation A (Pre-1980)
[4] = Species/Cell Type: Bacillus subtilis (H17 vs M45), Assay Type: Rec-assay, spot test, DNA effects (bacterial DNA repair), Assay Code: REWT, Evaluation Type: Evaluation A (Pre-1980)
[5] = Species/Cell Type: Drosophila melanogaster, Assay Type: Sex-linked recessive lethal gene mutation, Assay Code: SRL-, Evaluation Type: Evaluation A (Pre-1980)
[6] = Species/Cell Type: Human, Assay Type: Sister-chromatid exchange (SCE) in vitro, Assay Code: SC1+D, Dose Response: With dose response, Evaluation Type: Evaluation B (Post-1980)
[7] = Species/Cell Type: Saccharomyces cerevisiae, Assay Type: Mitotic recombination or gene conversion, Assay Code: YEH+, Evaluation Type: Evaluation A (Pre-1980)
[8] = Species/Cell Type: Salmonella typhimurium (one or more of the five standard strains: TA98, TA100, TA1535, TA1537, and TA1538), Assay Type: Histidine reverse gene mutation, Ames assay, Assay Code: SALT, Evaluation Type: Evaluation A (Pre-1980)
[9] = Species/Cell Type: Syrian hamster embryo (SA7/SHE) cells, Assay Type: Cell transformation, viral enhanced, Assay Code: CT7+, Evaluation Type: Evaluation A (Pre-1980)
[10] = Species/Cell Type: Drosophila melanogaster, Assay Type: Sex-linked recessive lethal gene mutation, Assay Code: SRLT, Evaluation Type: Evaluation A (Pre-1980)
[11] = Species/Cell Type: Bacillus subtilis (H17 vs M45), Assay Type: Rec-assay, spot test, DNA effects (bacterial DNA repair), Assay Code: REW+, Evaluation Type: Evaluation A (Pre-1980)
[12] = Species/Cell Type: Salmonella typhimurium, Assay Type: Forward and reverse gene mutation, host-mediated assay, Assay Code: HMA-, Evaluation Type: Evaluation A (Pre-1980)

Nc1cc(S(=O)(=O)O)cc2c1C(=O)/C(=N/Nc1ccc(-c3ccc(N/N=C4/C(=O)c5c(N)cc(S(=O)(=O)O)cc5C=C4S(=O)(=O)O)cc3)cc1)C(S(=O)(=O)O)=C2
call [1]: active; positive

CCOC(=O)N(CCO)N=O
mutagenic call [2]: active; positive

C[n+]1c2ccccc2cc2ccccc21
mutagenic call (Species/Cell Type: Saccharomyces cerevisiae, Assay Type: Forward gene mutation, Assay Code: YEFT, Evaluation Type: Evaluation A (Pre-1980)): no conclusion

c1ccc2cc(C3CO3)ccc2c1 (stereo unspecified)
mutagenic call [2]: active; positive

Oc1c2ccccc2c2ccc3cccc4ccc1c2c43
mutagenic call (Species/Cell Type: Chinese hamster lung (V79) cells, Assay Type: Forward gene mutation at the HPRT or ouabain locus, Assay Code: V79+/-*, Activation: With metabolic activation, Evaluation Type: Evaluation A (Pre-1980)): inactive; positive without activation, negative with activation | call (Species/Cell Type: Nonhuman, Assay Code: CCGT, Evaluation Type: Evaluation A (Pre-1980)): no conclusion | mutagenic call [2]: active; positive

C=CCOC(N)=O
mutagenic call (Species/Cell Type: Nonhuman, Assay Type: Sister-chromatid exchange (SCE) in vivo, Assay Code: SC3+D, Dose Response: With dose response, Evaluation Type: Evaluation B (Post-1980)): active; positive

CCCCN(C)N=O
mutagenic call (Species/Cell Type: Arabidopsis species, Assay Type: Gene mutation, Assay Code: ARM+, Evaluation Type: Evaluation A (Pre-1980)): active; positive | mutagenic call [3]: no conclusion | mutagenic call (Species/Cell Type: Salmonella typhimurium (one or more of the five standard strains: TA98, TA100, TA1535, TA1537, and TA1538), Assay Type: Histidine reverse gene mutation, Ames assay, Assay Code: SAL+*, Activation: With metabolic activation, Evaluation Type: Evaluation A (Pre-1980)): active; positive

CCCCOc1ccc(CC(=O)NN)cc1CN(CC)CC
mutagenic call (Species/Cell Type: Saccharomyces cerevisiae, Assay Type: Reverse gene mutation, Assay Code: YERT, Evaluation Type: Evaluation A (Pre-1980)): no conclusion

Clc1cc(N2CC2)nc(N2CC2)n1
mutagenic call (Species/Cell Type: Aspergillus nidulans, Assay Type: Forward gene mutation, Assay Code: ASF+, Evaluation Type: Evaluation A (Pre-1980)): active; positive

CNC(=O)/C=C(\C)OP(=O)(OC)OC
mutagenic call [4]: no conclusion | mutagenic call [5]: inactive; negative | mutagenic call (Species/Cell Type: Escherichia coli WP2 UVRA, Assay Type: Tryptophan reverse gene mutation, Assay Code: WPU-*, Activation: With metabolic activation, Evaluation Type: Evaluation A (Pre-1980)): inactive; negative | mutagenic call [3]: no conclusion | mutagenic call (Species/Cell Type: Human diploid fibroblasts, Assay Type: Unscheduled DNA synthesis (UDS) in vitro, DNA effects, Assay Code: UDH+, Evaluation Type: Evaluation A (Pre-1980)): active; positive | mutagenic call [6]: active; positive | mutagenic call (Species/Cell Type: Mammalian polychromatic erythrocytes, Assay Type: Micronucleus test, chromosome aberrations, Assay Code: MNT+, Evaluation Type: Evaluation B (Post-1980)): active; positive | mutagenic call [7]: active; positive | mutagenic call [8]: no conclusion

[Cu+].[Cu].[SH-]
mutagenic call [9]: active; positive

Nc1nc2nc[nH]c2c(=O)[nH]1
mutagenic call [10]: no conclusion | mutagenic call [3]: no conclusion

O=c1[nH]c(=O)n([C@H]2C[C@H](O)[C@@H](CO)O2)cc1/C=C/I
mutagenic call [6]: active; positive

CC(=O)O[C@H]1[C@H]2O[C@H]2C2=CC(=O)[C@]3(C[C@]2(C)[C@H]1C)O[C@]3(C)C=O
mutagenic call [11]: active; positive | mutagenic call (Species/Cell Type: Neurospora crassa, Assay Type: Reverse gene mutation, Assay Code: NER+, Evaluation Type: Evaluation A (Pre-1980)): active; positive | mutagenic call (Species/Cell Type: Nonhuman, Assay Type: Sister-chromatid exchange (SCE) in vitro, Assay Code: SC2T, Evaluation Type: Evaluation B (Post-1980)): no conclusion | mutagenic call (Species/Cell Type: Saccharomyces cerevisiae, Assay Type: Mitotic recombination or gene conversion, Assay Code: YEC+/-*, Activation: With metabolic activation, Evaluation Type: Evaluation A (Pre-1980)): inactive; positive without activation, negative with activation | mutagenic call [7]: active; positive | mutagenic call (Species/Cell Type: Saccharomyces cerevisiae, Assay Type: Reverse gene mutation, Assay Code: YER+, Evaluation Type: Evaluation A (Pre-1980)): active; positive | mutagenic call [8]: no conclusion

CC(=O)OCCBr
mutagenic call (Species/Cell Type: Escherichia coli polA (W3119 vs P3478), Assay Type: Rec-assay, DNA effects (bacterial DNA repair), Assay Code: RE1+, Evaluation Type: Evaluation A (Pre-1980)): active; positive

c1ccc2c(C3CO3)c3ccccc3cc2c1 (stereo unspecified)
mutagenic call [2]: active; positive

Cc1cc(O)c2c(c1O)C(=O)c1c(O)ccc(O)c1C2=O
mutagenic call [2]: active; positive

O=C=NCCCl
mutagenic call (Species/Cell Type: Chinese hamster lung (V79) cells, Assay Type: Forward gene mutation at the HPRT or ouabain locus, Assay Code: V79-, Evaluation Type: Evaluation A (Pre-1980)): inactive; negative

CCCCSP(=O)(SCCCC)SCCCC
mutagenic call (Species/Cell Type: Nonhuman, Assay Type: Sister-chromatid exchange (SCE) in vitro, Assay Code: SC2-, Evaluation Type: Evaluation B (Post-1980)): inactive; negative

Nc1c(O)cc(S(=O)(=O)O)c2ccccc12
mutagenic call [8]: no conclusion

F/C(=C(/F)C(F)(F)F)C(F)(F)F
mutagenic call [10]: no conclusion

COc1ccc2c(c1)OC(C)(C)[C@@H](c1ccccc1)[C@@H]2c1ccc(OCCN2CCCC2)cc1
mutagenic call (Species/Cell Type: Human, Sex: Male, Assay Type: Sperm morphology, Assay Code: SPHT, Evaluation Type: Evaluation A (Pre-1980)): no conclusion

CCC1(c2ccccc2)C(=O)NC(=O)N(C(=O)c2ccccc2)C1=O (stereo unspecified)
mutagenic call (Species/Cell Type: Rodents, Sex: Male, Assay Type: Dominant lethal test, Assay Code: DLTT, Evaluation Type: Evaluation A (Pre-1980)): no conclusion | mutagenic call [12]: inactive; negative

O=C(O)[C@@H]1CCCN1
mutagenic call [12]: inactive; negative

O=[N+]([O-])c1ccc2c3c(cccc13)CC2
call [1]: active; positive | mutagenic call [2]: active; positive

COP(=O)(OC)C(O)C(Cl)(Cl)Cl (stereo unspecified)
mutagenic call [4]: no conclusion | mutagenic call [5]: inactive; negative | mutagenic call (Species/Cell Type: Escherichia coli WP2 UVRA, Assay Type: Tryptophan reverse gene mutation, Assay Code: WPU+D, Dose Response: With dose response, Evaluation Type: Evaluation A (Pre-1980)): active; positive | mutagenic call [3]: no conclusion | mutagenic call (Species/Cell Type: Human diploid fibroblasts, Assay Type: Unscheduled DNA synthesis (UDS) in vitro, DNA effects, Assay Code: UDH+/-*, Activation: With metabolic activation, Evaluation Type: Evaluation A (Pre-1980)): inactive; positive without activation, negative with activation | mutagenic call (Species/Cell Type: Mammalian polychromatic erythrocytes, Assay Type: Micronucleus test, chromosome aberrations, Assay Code: MNTT, Evaluation Type: Evaluation A (Pre-1980)): no conclusion | mutagenic call (Species/Cell Type: Nonhuman, Assay Type: Sister-chromatid exchange (SCE) in vitro, Assay Code: SC2+D*, Activation: With metabolic activation, Dose Response: With dose response, Evaluation Type: Evaluation B (Post-1980)): active; positive | mutagenic call [7]: active; positive | mutagenic call [2]: active; positive | mutagenic call (Species/Cell Type: Salmonella typhimurium, Assay Type: Forward and reverse gene mutation, body fluid assay, Assay Code: BFU+, Evaluation Type: Evaluation A (Pre-1980)): active; positive

COc1cccc2c1C(=O)c1c(O)c3c(c(O)c1C2=O)C[C@@](O)(C(C)=O)C[C@@H]3O[C@@H]1C[C@@H](N(C)C)[C@@H](O)[C@@H](C)O1
mutagenic call [8]: no conclusion

Cn1c(=O)c2c(n(C)c1=O)n(C)c(=O)n2C
mutagenic call (Species/Cell Type: Allium cepa, Assay Type: Chromosome aberrations, Assay Code: ALC+D, Dose Response: With dose response, Evaluation Type: Evaluation A (Pre-1980)): active; positive

COCCl
call (Species/Cell Type: Nonhuman, Assay Code: CCG+L, Evaluation Type: Evaluation A (Pre-1980)): active; positive | mutagenic call [9]: active; positive

O=C(Nc1cccc(Cl)c1)OCC#CCCl
mutagenic call [11]: active; positive

CCNc1nc(Cl)nc(NCC)n1 (tested in a mixture with another compound)
mutagenic call (Species/Cell Type: Saccharomyces cerevisiae, Assay Type: Mitotic recombination or gene conversion, Assay Code: YEC-, Evaluation Type: Evaluation A (Pre-1980)): inactive; negative

N
mutagenic call [10]: no conclusion

CN(C)c1ccc(N=NS(=O)(=O)O)cc1
mutagenic call [11]: active; positive | mutagenic call (Species/Cell Type: Escherichia coli WP2, Assay Type: Tryptophan reverse gene mutation, Assay Code: WP2+, Evaluation Type: Evaluation A (Pre-1980)): active; positive | mutagenic call (Species/Cell Type: Escherichia coli WP2 UVRA, Assay Type: Tryptophan reverse gene mutation, Assay Code: WPU+, Evaluation Type: Evaluation A (Pre-1980)): active; positive | mutagenic call (Species/Cell Type: Human lymphocytes, Assay Type: Sister-chromatid exchange (SCE) in vitro, Assay Code: SCL+D, Dose Response: With dose response, Evaluation Type: Evaluation B (Post-1980)): active; positive | mutagenic call [6]: active; positive | call (Species/Cell Type: Nonhuman, Assay Code: CCG-, Evaluation Type: Evaluation A (Pre-1980)): inactive; negative | mutagenic call (Species/Cell Type: Nonhuman, Assay Type: Sister-chromatid exchange (SCE) in vitro, Assay Code: SC2+, Evaluation Type: Evaluation B (Post-1980)): active; positive | mutagenic call [2]: active; positive
